# Columns and labels:
# hERG = hERG (Homo sapiens, UniProt Q12809); set-up: method as in PMID 39660766; settings: read-out: hERG manual patch clamp IC50; cited from earlier work
# Opiate κ (OP2, KOP) = Opiate κ (OP2, KOP) (Homo sapiens, UniProt P41145); assay: Eurofins radioligand binding
# Interleukin IL-1 R1 = Interleukin IL-1 R1 (Homo sapiens, UniProt P14778); assay: Eurofins radioligand binding
# Sigma σ1 = Sigma σ1 (Homo sapiens, UniProt Q99720); assay: Eurofins radioligand binding
# Adrenergic α1D = Adrenergic α1D (Homo sapiens, UniProt P25100); assay: Eurofins radioligand binding
# [1] = molecular target: Transporter, Serotonin (SERT) (Homo sapiens, UniProt P31645); assay: Eurofins radioligand binding
# CYP 3A5 = CYP 3A5 (Homo sapiens, UniProt P20815); assay: CYP isoform contribution to metabolism: 3A5; format: in vitro ADME
# CYP 3A4 = CYP 3A4 (Homo sapiens, UniProt P08684); assay: CYP isoform contribution to metabolism: 3A4; format: in vitro ADME
# [2] = molecular target: Platelet Activating Factor (PAF) (Homo sapiens, UniProt P25105); assay: Eurofins radioligand binding
# Dopamine D2S = Dopamine D2S (Homo sapiens, UniProt P14416); assay: Eurofins radioligand binding
# Chain of Dopamine D2S (P14416 1-414 isoform P14416-2): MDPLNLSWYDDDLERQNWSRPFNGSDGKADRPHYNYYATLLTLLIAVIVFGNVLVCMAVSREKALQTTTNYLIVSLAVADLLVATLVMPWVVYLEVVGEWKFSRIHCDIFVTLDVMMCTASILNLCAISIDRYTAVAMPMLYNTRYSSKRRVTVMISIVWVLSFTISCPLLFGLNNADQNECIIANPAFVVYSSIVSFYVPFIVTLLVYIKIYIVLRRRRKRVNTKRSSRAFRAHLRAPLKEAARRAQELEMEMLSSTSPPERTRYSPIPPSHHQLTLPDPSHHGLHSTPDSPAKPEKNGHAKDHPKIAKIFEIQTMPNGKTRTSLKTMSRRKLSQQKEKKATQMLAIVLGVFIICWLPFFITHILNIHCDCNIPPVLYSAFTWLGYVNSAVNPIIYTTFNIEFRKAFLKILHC
# [3] = Dog MTD with pharmacokinetics study; format: in vivo; settings: for AUC / Cmax: dog MTD, plasma
# Text: (§1) To this end, we prepared a 200 g lot of PAM 5 and performed, in parallel, a dog maximum tolerated dose (MTD) with a pharmacokinetics study and a 14-day rat exploratory toxicology and toxicokinetic study, quantifying plasma Cmax and AUC for both parent 5 and metabolite 6. […] Moreover, while exposure increased with dose, it was nonlinear. […] The series was terminated based on (1) poor and less than dose-proportional increases in systemic exposure, (2) lack of a kinetic isotope effect to diminish production of 6 in dogs and rats, and (3) strong likelihood of even higher concentrations of 6 to be present in man.
# Histamine H1 = Histamine H1 (Homo sapiens, UniProt P35367); assay: Eurofins radioligand binding
# [4] = GSH trapping in microsomes; format: in vitro ADME; settings: rat, dog, cyno, and human microsomes
# seizure activity = assay: Behavioral manifestations of seizure activity (modified Racine score); format: in vivo, C57Bl/6 mice; settings: 100 mg/kg IP in mice; modified Racine scale 0-5
# Protocol: page 9: Brain plasma concentration ratio (Kp) was calculated by dividing brain concentration by plasma concentration for each animal. Unbound brain to unbound plasma concentration ratio (Kp,uu) is calculated using the following formula: Kp,uu = (Brain ng/g x brain fu)/(plasma ng/ml x plasma fu). Pharmacokinetic profiles in rats following oral single escalating doses Single escalating oral dosing in Sprague-Dawley rats was performed at Frontage Laboratories according to their non-GLP Standard Operating Procedure and IACUC protocols. In short, compounds were formulated in 10% Tween 80 in water and dosed at 10 mg/kg. At different times, arterial blood was collected from a femoral artery catheter, and compound concentration was determined in plasma by LC-MS/MS following their non-GLP protocol. PK parameters were determined using Phoenix WinNonlin software (version 6.3). In-vitro determination of blood-brain barrier penetration potential Blood-brain barrier penetration was determined using MDR1-MDCK cell monolayers by Absorption Systems, following their protocol. In short, compounds were incubated at […] final concentration on one side of the cell monolayer for 2 hours. […] Animals were monitored continuously and scored for behavioral manifestations of seizure activity at 5, 15, 30 min, and 1 h. Behavioral manifestations of seizures were scored using a modified Racine scoring system. […]
# CYP = assay: Time-dependent CYP inhibition; format: in vitro ADME; settings: in words
# [5] = molecular target: Transporter, Norepinephrine (NET) (Homo sapiens, UniProt P23975); assay: Eurofins radioligand binding
# Calcium Channel N-Type = Calcium Channel N-Type (Rattus norvegicus, UniProt Q02294); assay: Eurofins radioligand binding
# Androgen (Testosterone) = Androgen (Testosterone) (Homo sapiens, UniProt P10275); assay: Eurofins radioligand binding
# Endothelin ETB = Endothelin ETB (Homo sapiens, UniProt P24530); assay: Eurofins radioligand binding
# Chain of Endothelin ETB (P24530 27-442): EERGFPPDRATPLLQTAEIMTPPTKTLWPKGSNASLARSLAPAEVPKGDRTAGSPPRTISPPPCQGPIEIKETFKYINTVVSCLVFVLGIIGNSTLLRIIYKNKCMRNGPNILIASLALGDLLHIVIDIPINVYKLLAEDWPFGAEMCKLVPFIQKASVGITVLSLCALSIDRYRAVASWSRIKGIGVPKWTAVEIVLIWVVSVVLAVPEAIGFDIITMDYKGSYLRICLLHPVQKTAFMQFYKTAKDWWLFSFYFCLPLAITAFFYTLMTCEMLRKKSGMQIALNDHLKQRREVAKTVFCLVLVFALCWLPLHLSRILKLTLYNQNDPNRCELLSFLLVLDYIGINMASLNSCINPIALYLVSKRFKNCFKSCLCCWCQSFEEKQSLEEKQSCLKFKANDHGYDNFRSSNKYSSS
# [6] = Rat 14-day exploratory toxicology and toxicokinetic study; format: in vivo; settings: rat 14-day study, plasma
# Text: as §1
# Potassium Channel [KATP] = Potassium Channel [KATP] (Cricetus cricetus, UniProt Q09427); assay: Eurofins radioligand binding; set-up: species or system Hamster
# Chain of Potassium Channel [KATP] (Q09427 whole entry): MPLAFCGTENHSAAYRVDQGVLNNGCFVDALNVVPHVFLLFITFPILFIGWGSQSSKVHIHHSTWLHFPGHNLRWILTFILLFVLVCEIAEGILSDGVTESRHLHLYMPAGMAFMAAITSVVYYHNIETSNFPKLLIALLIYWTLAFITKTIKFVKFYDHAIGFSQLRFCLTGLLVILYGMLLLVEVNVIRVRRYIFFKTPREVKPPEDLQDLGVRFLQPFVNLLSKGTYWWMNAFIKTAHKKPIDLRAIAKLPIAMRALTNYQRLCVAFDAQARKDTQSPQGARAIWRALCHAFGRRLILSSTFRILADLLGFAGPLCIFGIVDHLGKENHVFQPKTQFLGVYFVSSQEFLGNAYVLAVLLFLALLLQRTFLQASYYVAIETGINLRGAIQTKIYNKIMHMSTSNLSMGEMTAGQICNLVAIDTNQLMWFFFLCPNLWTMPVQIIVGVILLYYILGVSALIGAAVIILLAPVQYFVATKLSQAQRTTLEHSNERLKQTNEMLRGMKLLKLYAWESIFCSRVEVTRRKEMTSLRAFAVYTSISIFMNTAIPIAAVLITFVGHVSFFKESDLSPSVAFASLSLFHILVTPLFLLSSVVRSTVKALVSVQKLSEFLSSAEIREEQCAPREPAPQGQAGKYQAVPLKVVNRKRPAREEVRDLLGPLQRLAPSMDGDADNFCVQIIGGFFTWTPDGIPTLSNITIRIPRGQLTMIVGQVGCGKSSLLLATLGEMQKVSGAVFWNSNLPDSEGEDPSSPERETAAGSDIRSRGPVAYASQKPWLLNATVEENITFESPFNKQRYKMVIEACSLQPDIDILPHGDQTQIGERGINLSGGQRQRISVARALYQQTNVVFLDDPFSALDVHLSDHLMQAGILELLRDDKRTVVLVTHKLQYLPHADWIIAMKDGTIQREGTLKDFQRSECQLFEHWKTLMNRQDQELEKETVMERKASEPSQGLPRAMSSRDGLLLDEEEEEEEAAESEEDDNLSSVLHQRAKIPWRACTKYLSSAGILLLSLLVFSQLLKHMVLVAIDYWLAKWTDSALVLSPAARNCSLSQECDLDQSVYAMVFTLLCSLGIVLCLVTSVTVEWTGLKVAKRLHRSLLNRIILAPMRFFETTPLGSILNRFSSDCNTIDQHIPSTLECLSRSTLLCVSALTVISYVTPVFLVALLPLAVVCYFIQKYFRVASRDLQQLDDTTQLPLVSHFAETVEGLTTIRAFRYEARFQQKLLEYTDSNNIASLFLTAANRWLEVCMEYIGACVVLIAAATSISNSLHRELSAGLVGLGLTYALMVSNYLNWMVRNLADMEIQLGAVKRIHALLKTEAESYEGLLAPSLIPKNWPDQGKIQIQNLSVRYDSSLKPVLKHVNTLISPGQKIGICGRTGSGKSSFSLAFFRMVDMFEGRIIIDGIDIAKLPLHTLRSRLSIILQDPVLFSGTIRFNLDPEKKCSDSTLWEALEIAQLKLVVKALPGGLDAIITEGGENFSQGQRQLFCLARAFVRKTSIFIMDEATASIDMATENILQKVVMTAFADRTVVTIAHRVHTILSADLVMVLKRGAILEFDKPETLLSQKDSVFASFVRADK
# Serotonin (5-HT3) = Serotonin (5-HT3) (Homo sapiens, UniProt P46098); assay: Eurofins radioligand binding
# Opiate μ (OP3, MOP) = Opiate μ (OP3, MOP) (Homo sapiens, UniProt P35372); assay: Eurofins radioligand binding
# Adrenergic β2 = Adrenergic β2 (Homo sapiens, UniProt P07550); assay: Eurofins radioligand binding
# Adrenergic β1 = Adrenergic β1 (Homo sapiens, UniProt P08588); assay: Eurofins radioligand binding
# Chain of Adrenergic β1 (P08588 whole entry): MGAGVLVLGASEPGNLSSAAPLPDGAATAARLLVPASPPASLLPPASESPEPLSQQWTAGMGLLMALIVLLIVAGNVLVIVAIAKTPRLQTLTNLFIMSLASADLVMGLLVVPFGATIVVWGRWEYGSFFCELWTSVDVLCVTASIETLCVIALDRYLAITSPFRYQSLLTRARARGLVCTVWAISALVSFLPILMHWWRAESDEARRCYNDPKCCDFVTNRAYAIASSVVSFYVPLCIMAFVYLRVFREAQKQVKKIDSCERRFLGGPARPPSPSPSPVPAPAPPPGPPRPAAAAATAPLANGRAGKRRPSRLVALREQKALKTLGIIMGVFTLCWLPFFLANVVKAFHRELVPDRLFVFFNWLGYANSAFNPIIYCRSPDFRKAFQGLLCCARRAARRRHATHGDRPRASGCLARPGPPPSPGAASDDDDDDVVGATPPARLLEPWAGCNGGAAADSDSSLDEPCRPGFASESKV
# Chain of Opiate κ (OP2, KOP) (P41145 whole entry): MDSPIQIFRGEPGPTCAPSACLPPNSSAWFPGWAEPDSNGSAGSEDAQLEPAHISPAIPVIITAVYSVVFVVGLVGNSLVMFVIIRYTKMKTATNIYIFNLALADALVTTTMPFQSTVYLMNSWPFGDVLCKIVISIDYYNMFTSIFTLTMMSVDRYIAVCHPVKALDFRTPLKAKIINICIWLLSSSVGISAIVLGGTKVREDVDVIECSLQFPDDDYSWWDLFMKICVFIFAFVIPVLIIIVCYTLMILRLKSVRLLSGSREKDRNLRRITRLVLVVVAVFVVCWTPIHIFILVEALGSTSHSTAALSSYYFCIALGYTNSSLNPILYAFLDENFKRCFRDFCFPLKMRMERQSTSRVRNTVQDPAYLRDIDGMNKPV
# Chain of hERG (Q12809 whole entry): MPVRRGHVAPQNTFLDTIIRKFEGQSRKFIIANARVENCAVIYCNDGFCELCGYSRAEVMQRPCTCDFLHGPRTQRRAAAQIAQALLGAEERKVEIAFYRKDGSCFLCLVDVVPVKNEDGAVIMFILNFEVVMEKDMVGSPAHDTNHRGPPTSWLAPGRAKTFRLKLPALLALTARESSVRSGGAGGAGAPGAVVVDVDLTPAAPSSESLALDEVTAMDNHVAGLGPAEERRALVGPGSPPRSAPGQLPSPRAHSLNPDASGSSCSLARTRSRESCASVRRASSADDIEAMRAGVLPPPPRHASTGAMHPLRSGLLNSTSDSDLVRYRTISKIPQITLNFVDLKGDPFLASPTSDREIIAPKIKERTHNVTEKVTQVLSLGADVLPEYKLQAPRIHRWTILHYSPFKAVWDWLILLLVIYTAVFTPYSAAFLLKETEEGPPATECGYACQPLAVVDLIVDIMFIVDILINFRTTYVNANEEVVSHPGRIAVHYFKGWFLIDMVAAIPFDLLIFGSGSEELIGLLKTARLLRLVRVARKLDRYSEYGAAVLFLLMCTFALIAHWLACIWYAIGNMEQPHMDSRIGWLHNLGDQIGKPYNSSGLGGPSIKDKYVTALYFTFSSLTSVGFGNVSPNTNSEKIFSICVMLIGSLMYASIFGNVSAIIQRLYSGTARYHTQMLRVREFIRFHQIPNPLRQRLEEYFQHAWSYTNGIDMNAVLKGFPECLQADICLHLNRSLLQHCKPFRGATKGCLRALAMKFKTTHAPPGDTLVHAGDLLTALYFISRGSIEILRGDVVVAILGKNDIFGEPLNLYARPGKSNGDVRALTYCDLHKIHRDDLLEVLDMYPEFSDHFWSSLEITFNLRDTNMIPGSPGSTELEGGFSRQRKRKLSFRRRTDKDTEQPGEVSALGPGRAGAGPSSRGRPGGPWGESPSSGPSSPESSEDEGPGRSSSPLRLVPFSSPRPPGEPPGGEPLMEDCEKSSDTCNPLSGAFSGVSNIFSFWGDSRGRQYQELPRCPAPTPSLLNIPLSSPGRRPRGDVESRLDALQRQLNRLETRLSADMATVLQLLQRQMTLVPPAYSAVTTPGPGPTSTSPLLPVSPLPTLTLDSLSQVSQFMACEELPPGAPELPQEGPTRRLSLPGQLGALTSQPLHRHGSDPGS
# Chain of Interleukin IL-1 R1 (P14778 18-569): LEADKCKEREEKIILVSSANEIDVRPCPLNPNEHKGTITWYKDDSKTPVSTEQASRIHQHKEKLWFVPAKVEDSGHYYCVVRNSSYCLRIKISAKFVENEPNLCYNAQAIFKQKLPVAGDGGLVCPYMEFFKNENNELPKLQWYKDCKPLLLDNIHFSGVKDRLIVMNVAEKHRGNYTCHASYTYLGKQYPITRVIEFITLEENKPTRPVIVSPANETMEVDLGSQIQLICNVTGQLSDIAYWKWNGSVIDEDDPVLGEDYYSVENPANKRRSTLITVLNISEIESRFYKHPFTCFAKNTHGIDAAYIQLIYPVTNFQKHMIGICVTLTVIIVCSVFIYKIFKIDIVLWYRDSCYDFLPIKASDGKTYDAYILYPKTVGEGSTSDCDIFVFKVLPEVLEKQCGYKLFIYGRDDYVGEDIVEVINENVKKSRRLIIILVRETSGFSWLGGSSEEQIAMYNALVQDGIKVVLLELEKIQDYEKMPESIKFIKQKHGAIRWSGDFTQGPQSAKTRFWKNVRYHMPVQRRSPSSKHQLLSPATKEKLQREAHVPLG
smiles,measurement,setting,value
Cn1cc2c(-c3cc(F)c(CN4Cc5ncccc5C4=O)c(F)c3)cccc2n1 [compound 1],IC50,hERG,12 µM
[2H]C1([2H])c2ncccc2C(=O)N1Cc1c(F)cc(-c2cccc3nn(C([2H])([2H])[2H])cc23)cc1F [compound 5],inhibition at 10 µM,"Opiate κ (OP2, KOP)",9%
same,inhibition at 10 µM,Interleukin IL-1 R1,8%
same,inhibition at 10 µM,Sigma σ1,11%
same,inhibition at 10 µM,Adrenergic α1D,-15%
same,inhibition at 10 µM,[1],-4%
same,contribution of CYP 3A5 to metabolism,CYP 3A5,5.8%
same,contribution of CYP 3A4 to metabolism,CYP 3A4,92.6%
same,inhibition at 10 µM,[2],22%
same,inhibition at 10 µM,Dopamine D2S,2%
same,AUC,[3]; 30 mg/kg PO of 5,34.9 µg·h/mL
same,Cmax,[3]; 30 mg/kg PO of 5,2400 ng/mL
same,AUC,[3]; 300 mg/kg PO of 5,68 µg·h/mL
same,Cmax,[3]; 300 mg/kg PO of 5,3620 ng/mL
same,AUC,[3]; 1000 mg/kg PO of 5,103 µg·h/mL
same,Cmax,[3]; 1000 mg/kg PO of 5,5560 ng/mL
same,tolerability in dog MTD,"[3]; dog, in vivo, po",well-tolerated
same,inhibition at 10 µM,Histamine H1,2%
same,conjugation in GSH trapping studies,[4],< 0.1%
same,Racine score,seizure activity,1
same,time-dependent CYP inhibition liability,CYP,no time-dependent CYP inhibition or CYP induction liabilities
same,inhibition at 10 µM,[5],12%
same,inhibition at 10 µM,Calcium Channel N-Type,-2%
same,inhibition at 10 µM,Androgen (Testosterone),0%
same,inhibition at 10 µM,Endothelin ETB,1%
same,AUC at 14 days,"[6]; day 14, 300 mg/kg PO of 5",321 µg·h/mL
same,Cmax at 14 days,"[6]; day 14, 300 mg/kg PO of 5",22200 ng/mL
same,AUC at 14 days,"[6]; day 14, 750 mg/kg PO of 5",536 µg·h/mL
same,Cmax at 14 days,"[6]; day 14, 750 mg/kg PO of 5",31300 ng/mL
same,AUC at 14 day,"[6]; day 14, 1500 mg/kg PO of 5",518 µg·h/mL
same,Cmax at 14 days,"[6]; day 14, 1500 mg/kg PO of 5",30700 ng/mL
same,inhibition at 10 µM,Potassium Channel [KATP],24%
same,inhibition at 10 µM,Serotonin (5-HT3),-9%
same,inhibition at 10 µM,"Opiate μ (OP3, MOP)",5%
same,inhibition at 10 µM,Adrenergic β2,-1%
same,inhibition at 10 µM,Adrenergic β1,2%

# — PMC12006963, “Application of Deuterium in an M1 Positive Allosteric Modulator Back-Up Program: The Discovery of VU6045422” (ACS Chemical Neuroscience, 2025)
